From PMC12040169 (PLOS Biology, 2025) come the findings set out here.

The viability is a read-out of living cells in per cent, often relative to untreated cells.

This series is described as follows: in vitro. Conditions: human, hela cells, % viability.

On to `CCC1=C(c2ccc(Cl)cc2)CCC(C(=O)NCCCN(C)C)C1C` (stereo not drawn) [CBK012578], for which the viability at 28.5 h, 10 µM is 74.1%.

In the case of `OC(COc1ccc2c(c1)OCO2)CN1CCCN(c2nc3ccc(Cl)cc3s2)CC1` (stereo not drawn) [CBK074646], the viability at 28.5 h, 10 µM was 102%.

Regarding `c1ccc(CCCN2CCN(C3CCN(Cc4ccccc4)CC3)CC2)cc1` [CBK263457], the viability at 28.5 h, 10 µM came to 84.8%.

As for `CN(C)CCCNC(=O)c1cc2c(n(-c3ccc(Cl)c(Cl)c3)c1=O)CC(C)(C)CC2=O` [CBK293952], the viability at 28.5 h, 10 µM is 87.4%.

Consider `O=C(NC1CC1)c1ccc(-n2cccn2)c(C#Cc2ccccn2)c1` [CBK282272], for which the viability at 28.5 h, 10 µM worked out at 106%.

For `CCOC(=O)c1c(NC(=O)Cn2cnc3ccccc32)sc2c1CCCC2` [CBK260917], the viability at 28.5 h, 10 µM came out at 106%.

Consider `CS(=O)(=O)Nc1ccc(-c2cc(F)cc(F)c2)c2ccccc12` [CBK083743], for which the viability at 28.5 h, 10 µM is 89.8%.

Regarding `CC1=NS(=O)(=O)NC2=C1CCCC2` [CBK022998], the viability at 28.5 h, 10 µM was 96.6%.

Take `O=C(O)COCC(=O)N1CCCC(c2nc(-c3ccccc3)c3ccccn23)C1` (stereo not drawn) [CBK046806]: the viability at 28.5 h, 10 µM was 86.1%.

On to `COCCC(=O)NC(Cc1ccsc1)c1nc(C)c(C)s1` (stereo not drawn) [CBK284774], for which the viability at 28.5 h, 10 µM turned out to be 84.7%.

As for `CCCCN(C)c1c(C)nc2c(Oc3ncccn3)cccn12` [CBK147190], the viability at 28.5 h, 10 µM turned out to be 90.9%.

As for `CCNC(=S)N1CC[C@@H]2N(C)CC[C@]2(c2ccc(OC)c(OC)c2)CC1` [CBK059113T], the viability at 28.5 h, 10 µM came to 88.5%.

For the molecule `O=C(O)C1N(Cc2ccccc2)CCCN1Cc1ccccc1` [CBK265196], the viability at 28.5 h, 10 µM worked out at 111%.

Regarding `[O-][S+](CC(O)COc1ccc(Cl)cc1)c1ccccn1` (stereo not drawn) [CBK261750], the viability at 28.5 h, 10 µM amounted to 99.9%.

Take `Cc1cc(C(=O)NCC[S+](C)[O-])c(-n2cccc2)s1` (stereo not drawn) [CBK283305]: the viability at 28.5 h, 10 µM was 96.7%.

In the case of `CCc1ccc(C(=O)c2ccccc2C(=O)O)cc1` [CBK010776], the viability at 28.5 h, 10 µM turned out to be 93.7%.

Consider `CCOC(=O)C1CN(C(=O)N(CCN)Cc2ccc(Cl)cc2)CC1c1ccccc1` (stereo not drawn) [CBK001682C], for which the viability at 28.5 h, 10 µM was determined as 97.8%.

As to `Cc1ccccc1-c1ccc(C(=O)Nc2ccc3c(c2)OCO3)c(N2CCN(C(=O)c3ccco3)CC2)n1` [CBK076196], the viability at 28.5 h, 10 µM came to 101%.

On to `Cc1cc(NC(=O)CSc2nc(-c3ccc(F)cc3)cc(C(F)(F)F)n2)n(-c2ccccc2)n1` [CBK266248], for which the viability at 28.5 h, 10 µM stood at 102%.

For `COc1ccc2[nH]cc(CC(=O)N3CCCC4(CCN(C(=O)c5ccc(OC)c(OC)c5)C4)C3)c2c1` (stereo not drawn) [CBK131666], the viability at 28.5 h, 10 µM turned out to be 81.1%.

Turning to `CC(C)CN1CCC(C(=O)NC(c2ccc(Cl)cc2)c2cnccn2)CC1` (stereo not drawn) [CBK148026], the viability at 28.5 h, 10 µM turned out to be 96.6%.

Take `CC(=O)c1ccc(OCC(=O)Nc2cnc(-c3cccc(C)c3)c(-c3ccc(N)cc3)n2)cc1` [CBK036722]: the viability at 28.5 h, 10 µM turned out to be 107%.

Take `CC(=O)Nc1cccc(C(=O)N2CCN(Cc3ccccn3)CC2)c1` [CBK304067]: the viability at 28.5 h, 10 µM stood at 86.3%.

For `O=C(CSc1nc(Nc2ccccc2)nc(N2CCOCC2)n1)N1CCN(c2ccccc2)CC1` [CBK269078], the viability at 28.5 h, 10 µM worked out at 98.5%.

Take `O=C(CSc1ccc2nnc(-c3cccc(F)c3)n2n1)Nc1nccs1` [CBK287522]: the viability at 28.5 h, 10 µM is 85.8%.

With `Cc1cccc(C2(O)CCN(CC(O)c3ccc4c(c3)CCC4)CC2)c1` (stereo not drawn) [CBK286330], the viability at 28.5 h, 10 µM worked out at 95.3%.

For `CC(C)n1nccc1C(=O)N1CCCC(c2cc3cccnc3[nH]2)C1` (stereo not drawn) [CBK284930], the viability at 28.5 h, 10 µM turned out to be 99.3%.

Turning to `COc1ccc(S(=O)(=O)N2CCSC2)cc1C` [CBK097882], the viability at 28.5 h, 10 µM turned out to be 106%.

For `CC(Oc1ccccc1)c1nnc(SCC(=O)Nc2ccc(Br)c(Cl)c2)n1C` (stereo not drawn) [CBK266299], the viability at 28.5 h, 10 µM is 113%.

Consider `Fc1ccc(OCc2ccc(-c3nnn[nH]3)cc2)cc1` [CBK267859], for which the viability at 28.5 h, 10 µM was determined as 106%.

As to `CC(=O)Nc1cc(NC(C)=O)c(O)c(C(=O)O)c1` [CBK009871], the viability at 28.5 h, 10 µM amounted to 88.6%.

On to `COc1ccc(-c2ccc(/C=N/NC(=O)c3ccncc3)o2)c([N+](=O)[O-])c1` [CBK262156], for which the viability at 28.5 h, 10 µM was 97.3%.

`O=C(c1ccc(S(=O)(=O)N2CCCCCC2)cc1)N1CCC(CN2C(=O)c3cccc4cccc(c34)C2=O)CC1` [CBK263835]: the viability at 28.5 h, 10 µM was determined as 98.1%.

Take `COc1ccc2c(C)c(C(=O)NC(C)Cc3ccccn3)oc2c1` (stereo not drawn) [CBK281424]: the viability at 28.5 h, 10 µM was found to be 89.1%.

Turning to `Nc1ncc(-c2ccc(O)cc2)nc1N1CCC[C@@H]1CO` [CBK063669], the viability at 28.5 h, 10 µM worked out at 91.7%.

Regarding `COc1ccc(C)cc1NC(=O)CSc1nc(C)cc(C(F)(F)F)n1` [CBK270205], the viability at 28.5 h, 10 µM is 96%.

For the molecule `Cc1ccc(NC(=O)c2ccc(-c3cccc([N+](=O)[O-])c3)o2)cc1-c1nc2ncccc2o1` [CBK262947], the viability at 28.5 h, 10 µM stood at 89.7%.

Turning to `COc1ccc2[nH]cc(CC(=O)Nc3cccc(-c4ccc5c(c4)COC4(CCNCC4)O5)c3)c2c1` [CBK105859], the viability at 28.5 h, 10 µM (bulk resorufin, single well) was 78%.

As to `O=C(Nc1ccc(N2CCNCC2)nc1)c1cccnc1` [CBK029439T], the viability at 28.5 h, 10 µM worked out at 95.1%.

In the case of `O=C1CC[C@@H](NCc2cccc(O)c2)[C@H](c2cc(F)cc(F)c2)N1` [CBK282909], the viability at 28.5 h, 10 µM amounted to 98%.

As to `CN1CCN(C(=O)c2ccc(-c3ccc(N4CCOCC4)cc3)nc2N(C)C)CC1` [CBK106114], the viability at 28.5 h, 10 µM was found to be 90%.

Regarding `O=C(Nc1ccc(N2CCOCC2)c2nonc12)c1cc(-c2cccnc2)nc2ccc(Cl)cc12` [CBK267724], the viability at 28.5 h, 10 µM was determined as 89.8%.

For `O=c1[nH]c(=O)c2cc(S(=O)(=O)Nc3ccc(Oc4cccnc4)cc3)ccc2[nH]1` [CBK286386], the viability at 28.5 h, 10 µM worked out at 99.2%.

For the molecule `CC1(C)Cc2c(sc(NC(=O)c3ccccc3Cl)c2C(=O)O)CO1` [CBK126806], the viability at 28.5 h, 10 µM was 99.4%.

For the molecule `CC(Oc1ccccc1)C(=O)Nc1ccccc1-c1ccccc1` (stereo not drawn) [CBK264059], the viability at 28.5 h, 10 µM was determined as 111%.

As to `COc1ccc(OC)c(NC(=O)Cn2cc(C(C)=O)c3ccccc32)c1` [CBK268661], the viability at 28.5 h, 10 µM worked out at 92.5%.

`COc1ccc(CCN2CCN(c3nccnc3OCc3cc(C)on3)CC2)cc1OC` [CBK084207]: the viability at 28.5 h, 10 µM turned out to be 105%.

`Nc1ncc(-c2ccncc2)nc1-c1cccc2c1oc1ccccc12` [CBK063889]: the viability at 28.5 h, 10 µM is 102%.

`CNC(=O)c1cccc(NC(=O)c2ccc(C)nc2N2CCOCC2)c1` [CBK106223]: the viability at 28.5 h, 10 µM was found to be 95.1%.

For `O=C1NC(=O)C(CCCCN2CCCc3ccccc32)N1` (stereo not drawn) [CBK143965], the viability at 28.5 h, 10 µM came out at 98.3%.

As to `O=[N+]([O-])c1ccc(Sc2cccs2)c(C(F)(F)F)c1` [CBK002621], the viability at 28.5 h, 10 µM is 105%.

On to `CCOC(=O)c1cc2c(=O)n3cc(C)ccc3nc2n(Cc2cccnc2)c1=N` [CBK263095], for which the viability at 28.5 h, 10 µM is 90.5%.

As for `CN(C)CCCOC(=O)CN1c2ccccc2CCc2ccccc21` [CBK022863C], the viability at 28.5 h, 10 µM turned out to be 97%.

As for `Cc1csc(NC(=O)CSc2ccc3nnc(-c4ccccc4)n3n2)n1` [CBK287517], the viability at 28.5 h, 10 µM stood at 105%.

Consider `O=C(Nc1ccc(Br)cc1C(=O)O)c1cccs1` [CBK066822], for which the viability at 28.5 h, 10 µM came out at 86.8%.

Regarding `O=C(Nc1cccc(Cl)c1Cl)c1cnc2n(c1=O)CCS2` [CBK287380], the viability at 28.5 h, 10 µM amounted to 95.1%.

Consider `O=C(CO)N1CC2(CCN(CCn3cccc3)CC2)c2ccccc21` [CBK143953], for which the viability at 28.5 h, 10 µM worked out at 86.9%.

On to `O=C(O)CCn1cc(C=C2C(=O)NC(=S)NC2=O)c(-c2cccc([N+](=O)[O-])c2)n1` [CBK265309], for which the viability at 28.5 h, 10 µM (bulk resorufin, single well) was 116%.

For `CCCC12CN3CC(C)(CN(C1)C31C(=O)Nc3ccc(C)cc31)C2=O` (stereo not drawn) [CBK268491], the viability at 28.5 h, 10 µM came out at 113%.

In the case of `COc1ccc(CCn2cncc2-c2cn(C)nc2C)cc1C` [CBK281814], the viability at 28.5 h, 10 µM is 102%.

Take `O=S1(=O)c2cc(/N=C/c3c(O)ccc4ccccc34)ccc2-c2ccc(/N=C/c3c(O)ccc4ccccc34)cc21` [CBK261240]: the viability at 28.5 h, 10 µM came out at 84.7%.

For the molecule `O=C1NC2CCCCC2NC1CC(=O)N1CCN(Cc2ccccc2)CC1` (stereo not drawn) [CBK269484], the viability at 28.5 h, 10 µM came out at 92.5%.

Consider `Cc1nn(CC(=O)N(C)CCCc2nccn2C)c(=O)c2ccccc12` [CBK307087], for which the viability at 28.5 h, 10 µM came out at 92.2%.

On to `NS(=O)(=O)c1ccc(NC(=O)c2cccnc2)cc1` [CBK264488], for which the viability at 28.5 h, 10 µM worked out at 106%.

As for `OCc1cccc(-c2nccnc2NCc2ccncc2)c1` [CBK037446], the viability at 28.5 h, 10 µM turned out to be 105%.

Turning to `COc1ccc2nc(Nc3nc4ccc(S(C)(=O)=O)cc4s3)sc2c1` [CBK287484], the viability at 28.5 h, 10 µM came out at 102%.

For `O=C(NCc1nnc(-c2cccs2)o1)C1(c2ccccc2F)CC1` [CBK284637], the viability at 28.5 h, 10 µM amounted to 83.2%.

With `Nc1ncncc1-c1noc([C@@H]2CCCN2C2CCOCC2)n1` [CBK288932], the viability at 28.5 h, 10 µM was found to be 90.7%.

On to `Cc1cnn(CC2CCCN2C(=O)CC2OCCc3ccsc32)c1` (stereo not drawn) [CBK305370], for which the viability at 28.5 h, 10 µM was found to be 86.5%.

In the case of `CC(=O)NC1(c2ccccc2)CCN(Cc2ccnn2C)CC1` [CBK281805], the viability at 28.5 h, 10 µM stood at 87.8%.

Consider `Cc1cc(-c2cnc(N)nc2)cc(C2CCCN(C(=O)COc3c(C)cccc3C)C2)n1` (stereo not drawn) [CBK285933], for which the viability at 28.5 h, 10 µM turned out to be 103%.

As for `CC(=O)Nc1cccc2c1NSN2` [CBK027082], the viability at 28.5 h, 10 µM turned out to be 92.1%.

Regarding `O=C(NCc1csc2c1CCCC2)N1CC(c2ccccn2)C1` [CBK307499], the viability at 28.5 h, 10 µM is 100%.

As to `O=C(O)c1ccc(-n2nnnc2Sc2nc([N+](=O)[O-])nn2Cc2ccccc2F)cc1` [CBK268498], the viability at 28.5 h, 10 µM turned out to be 91.5%.

For the molecule `O=C(O)COc1cccc(NS(=O)(=O)c2ccc(Br)cc2)c1` [CBK286911], the viability at 28.5 h, 10 µM amounted to 111%.

`COc1ccc2cnc(C3CCCN(C(=O)C4CC4)C3)cc2c1C` (stereo not drawn) [CBK284716]: the viability at 28.5 h, 10 µM came out at 90.8%.

For `CC(=O)NCC1CCC(C(NC(=O)C2CC2)c2ccccn2)CC1` (stereo not drawn) [CBK283000], the viability at 28.5 h, 10 µM turned out to be 87.5%.

In the case of `c1ccc(OCCN2CCCN(c3nccc(OCCN4CCOCC4)n3)CC2)cc1` [CBK083940], the viability at 28.5 h, 10 µM worked out at 110%.
